Patent US11730717B1, “Melanin-inspired antimicrobial” (The Board of Regents for the Oklahoma Agricultural and …, priority 2020, dated 2023)
“Also recorded” adds a separate entry of the source.

Experiments:
B. subtilts ATCC 6633 = assay: MIC and MBC values (Table 2); format: cell-based; details: Bacillus subtilis, ATCC6633
[1] = tested on: Bacillus subtilis ATCC 6633; assay: Disc agar diffusion assay; format: cell-based
Procedure: (§1) As a further test of an embodiment, the antibacterial properties of EIPE-1 were tested across a large panel of organisms. EIPE-1 was dissolved in DMSO, impregnated onto sterile filter paper disks, and DMSO served as the untreated control according to the following procedure: • 1. Prepare a 2.5 μg/μL stock solution of EIPE-1 by micro pipetting 200 μL of DMSO into 2.0 mL Eppendorf Tube containing 0.5 mg of EIPE-1. Dissolve with vortex agitation and store at 4° C. • 2. Use forceps to pick up sterile 6.0 mm blank paper disks. Make sure to touch only one side of disc as lightly as possible. […] Lean the impregnated disc up against the side of a small sterile glass petri dish. Follow same procedure for DMSO control. Allow disks several hours to dry under flowing sterile air. • 3. Inoculate starter cultures using cells from working culture cultivated on Mueller-Hinton Agar (MHA; Difco Laboratories). Starters consist of ˜20 mL of Mueller-Hinton Broth (MHB; Difco Laboratories) in 125-mL culture flasks. Incubate starter cultures in an Excella E24 Benchtop Incubator Shaker (New Brunswick Scientific Co., Inc., Edison, N.J., USA) at 37° C. and 180 rpm for 15-18 hours. • 4. Pour at least 5.0 mL of NMB into 18-mL Kimax tubes. Use a Pasteur pipette to deliver enough of the starter culture cell suspension to reach an optical density (OD620) of 0.025 (Spectronic™ 20 optical spectrophotometer; Thermo Electron Corp., Madison, Wis., USA). Ensure that both transmittance and absorbance are set to 0.0 using a blank NMB sample. Incubate in rotary shaking incubator at 37° C. and 180 rpm until optical density reaches 0.1. • 5. Deliver 100 μL of test culture to the middle of a small 100 mm×15 mm Petri dish containing ˜⅛ in thickness of MHA. • 6. Saturate a sterile cotton swab with MHB by dipping the cotton swab into KIMAX® tube with MHB and then touch the swab to the north, south, east, and west side of the KIMAX® tube to remove excess broth. • 7. Streak the inoculum as follows: • a. Start in the center and make four straight lines to the 12, 3, 6, and 9 o'clock position on the petri dish. • b. Start at the 12 o'clock position and streak side to side all the way down the plate to the 6 o'clock position. […] Rotate the petri dish 90° and complete the same side to side streak all the way down the petri dish. • d. Complete step c. twice more. • e. Rotate petri dish 45° and complete the side-to-side streak. • f. Rotate petri dish 90° and complete the side-to-side streak. • 8. Use sterile forceps to transfer the DMSO control paper disc onto the agar surface and pat the paper disc down to ensure flush contact. Use the same technique to deliver EIPE-1 paper disc. • 9. Place petri dish at 4° C. for 1.0 hour to allow EIPE-1 diffusion in the absence of growth. • 10. Incubate petri dish at 37° C. for 18 hours. • 11. Observe for zones of growth inhibition surrounding disks. Measure diameter with electronic caliper and subtract 6.0-mm disc diameter. Results • a) Each organism was initially tested once to serve as a screen.

[2] = tested on: Staphylococcus aureus ATCC 25923; assay: Disc agar diffusion assay; format: cell-based
Procedure: as §1

C. neoformans = assay: Scanning electron microscopy of treated fungal cells; format: cell-based, Cryptococcus neoformans; details: exposed at the minimum inhibitory concentration 1.749 μg/mL for 4, 8, 12 or 24 hrs
Procedure: C. neoformans were suspended in RPMI with MOPs, 0.165M, at a concentration of 2.0×10^6 cells/mL. RPMI Mops media was added to a 2 mL collection tube in a volume of 100 μL. […] The tubes were incubated at 35° C. in a humid incubator for set time points of 4 hrs, 8 hrs, 12 hrs, or 24 hrs. Once removed, the tubes were placed in a centrifuge for 1 min. at 5000 rpm. Media was removed. The pellet was resuspended in 2.0% glutaraldehyde in 0.1 M cacodylate buffer at a volume of 1 mL for a minimum of 2 hrs.
Fixed C. neoformans cells were placed in a centrifuge for 1 min at 5000 rpm. Media was removed and C. neoformans was rinsed 3 times in a buffered wash at fixed intervals of 15 mins. Rinsed cells were resuspended in 1% OsO4 at room temperature for 1 hr in a 36-well plate with a cover slip. 1% OsO4 was removed. C. neoformans was rinsed 3 times in a buffered wash at fixed intervals of 15 mins. C. neoformans were dehydrated in ethanol at 50%, 70%, 90%, 95%, and 100% three times at fixed intervals of 15 mins. C. neoformans were wash two times with […] at a time interval of 5 mins. Cover slips were placed on a clear sheet for 12 hrs to dry. Cover slips were mounted on stubs with silver paint. The cover slips were covered in an Au—Pd coat. […]

[3] = Group 3: Gram-positive organisms

## COC(=O)c1cc2c(C#Cc3ccc(OCCC[N+](C)(C)C)cc3)c(OC)c(OC)c(C#Cc3ccc(OCCC[N+](C)(C)C)cc3)c2n1C [EIPE-1, 3,3′-((((5,6-dimethoxy-2-(methoxycarbonyl)-1-methyl-1H-indole-4,7-diyl)bis(ethyne-2,1-diyl))bis(4,1-phenylene))bis(oxy))bis(N,N,N-trimethylpropan-1-aminium) iodide]
B. subtilts ATCC 6633
  MBC: 1 µg/mL
  MIC: 1 µg/mL
[1]; B. subtilis ATCC 6633, 25 μg per disk, zone minus disk diameter (6.0mm)
  Inhibition Zone Diameter (mm) ± SD: 1.1 ± 0.2 mm
[1]; B. subtilis ATCC 6633, 50 μg per disk, zone minus disk diameter (6.0mm)
  Inhibition Zone Diameter (mm) ± SD: 3.3 ± 0.1 mm
[1]; Bacillus subtilis, ATCC6633, B. subtilis ATCC 6633, 25 μg per disk, zone minus disk diameter (6.0mm), read-out: Inhibition Zone Diameter (mm) ± SD
  zone of inhibition at 25 µg/disc: 1.1 mm
[1]; Bacillus subtilis, ATCC6633, B. subtilis ATCC 6633, 50 μg per disk, zone minus disk diameter (6.0mm), read-out: Inhibition Zone Diameter (mm) ± SD
  zone of inhibition at 50 µg/disc: 3.3 mm
[1]; Bacillus subtilis, ATCC6633, B. subtilis ATCC 6633, 250 μg per disk, zone minus disk diameter (6.0mm), read-out: Inhibition Zone Diameter (mm) ± SD
  zone of inhibition at 250 µg/disc: 1.8 ± 0.3 mm
[1]; [3]
  susceptibility group in disc diffusion screen: susceptible
[2]; [3]
  susceptibility group in disc diffusion screen: susceptible
[2]; S. aureus ATCC 25923, 25 μg per disk, zone minus disk diameter (6.0mm)
  Inhibition Zone Diameter (mm) ± SD: 1.6 ± 0.1 mm
[2]; S. aureus ATCC 25923, 50 μg per disk, zone minus disk diameter (6.0mm)
  Inhibition Zone Diameter (mm) ± SD: 3.1 ± 0.2 mm
[2]; Staphylococcus aureus, ATCC25923, S. aureus ATCC 25923, 25 μg per disk, zone minus disk diameter (6.0mm), read-out: Inhibition Zone Diameter (mm) ± SD
  zone of inhibition at 25 µg/disc: 1.6 mm
[2]; Staphylococcus aureus, ATCC25923, S. aureus ATCC 25923, 50 μg per disk, zone minus disk diameter (6.0mm), read-out: Inhibition Zone Diameter (mm) ± SD
  zone of inhibition at 50 µg/disc: 3.1 mm
[2]; Staphylococcus aureus, ATCC25923, S. aureus ATCC 25923, 250 μg per disk, zone minus disk diameter (6.0mm), read-out: Inhibition Zone Diameter (mm) ± SD
  zone of inhibition at 250 µg/disc: 2.3 ± 0.2 mm
C. neoformans
  cell wall changes by SEM: structural changes to their cell wall; also recorded: changes to the cell wall shown at 4 hours
